{"source": "patent US20230414599A1", "about": "“NICOTINAMIDE, NICOTINAMIDE PRECURSORS AND NICOTINAMIDE METABOLITES AND COMPOSITIONS THEREOF FOR REDUCING THE TIME TO RESOLUTION OF SYMPTOMS IN PATIENTS WITH COVID-19 AND OTHER VIRAL INFECTIONS” (CONARIS RESEARCH INSTITUTE AG, priority 2020, published 2023)", "system": "COVID-19", "conditions": "500 mg IR + 500 mg CICR-NAM daily; for Ability to perform normal activities, complaint scale 0-6, mean change / Ability to perform normal activities, complaint scale 0-6, median change: week 6 - baseline", "key": {"[1]": {"conditions": "week 4, current or former smokers, n = 75"}, "[2]": {"conditions": "week 4, patients with cough and fever, n = 15"}, "[3]": {"conditions": "week 4, patients with cough, n = 106"}, "[4]": {"conditions": "week 4, patients with fever, n = 21"}, "[5]": {"conditions": "week 4, ≥1 risk factor for severe COVID-19, n = 117"}, "[6]": {"conditions": "BMI ≥30.0 or type 2 diabetes, n = 27"}, "[7]": {"conditions": "current or former smokers, n = 75"}, "[8]": {"conditions": "patients with cough and fever, n = 15"}, "[9]": {"conditions": "≥1 risk factor for severe COVID-19, n = 117"}, "[10]": {"conditions": "week 6, BMI ≥30.0 or type 2 diabetes, n = 27"}, "[11]": {"conditions": "week 6, current or former smokers, n = 75"}, "[12]": {"conditions": "week 6, patients with cough and fever, n = 15"}, "[13]": {"conditions": "week 6, patients with cough, n = 106"}, "[14]": {"conditions": "week 6, patients with fever, n = 21"}, "[15]": {"conditions": "week 6, ≥1 risk factor for severe COVID-19, n = 117"}}, "note": "Like-named read-outs stand apart in the source and are kept apart here.", "data": [{"smiles": "NC(=O)c1cccnc1", "note": "[Nicotinamide, nicotinamide]", "values": [{"measurement": "Ability to perform normal activities worse vs baseline, % of patients", "setting": "[1]", "result": 6.67, "unit": "%"}, {"measurement": "Ability to perform normal activities worse vs baseline, patients", "setting": "[1]", "result": 5}, {"measurement": "Ability to perform normal activities, complaint scale 0-6, mean", "setting": "[1]", "result": 0.920}, {"measurement": "Ability to perform normal activities, complaint scale 0-6, median", "setting": "[1]", "result": 0.000}, {"measurement": "Reduced physical performance constant vs baseline, % of patients", "setting": "[1]", "result": 38.67, "unit": "%"}, {"measurement": "Reduced physical performance constant vs baseline, patients", "setting": "[1]", "result": 29}, {"measurement": "Reduced physical performance improved vs baseline, % of patients", "setting": "[1]", "result": 56.00, "unit": "%"}, {"measurement": "Reduced physical performance improved vs baseline, patients", "setting": "[1]", "result": 42}, {"measurement": "Reduced physical performance worse vs baseline, % of patients", "setting": "[1]", "result": 5.33, "unit": "%"}, {"measurement": "Reduced physical performance worse vs baseline, patients", "setting": "[1]", "result": 4}, {"measurement": "Ability to perform normal activities, complaint scale 0-6, mean", "setting": "[2]", "result": 1.200}, {"measurement": "Ability to perform normal activities, complaint scale 0-6, median", "setting": "[2]", "result": 0.0}, {"measurement": "Ability to perform normal activities, complaint scale 0-6, mean", "setting": "[3]", "result": 0.736}, {"measurement": "Ability to perform normal activities, complaint scale 0-6, median", "setting": "[3]", "result": 0.0}, {"measurement": "Ability to perform normal activities, complaint scale 0-6, mean", "setting": "[4]", "result": 1.048}, {"measurement": "Ability to perform normal activities, complaint scale 0-6, median", "setting": "[4]", "result": 0.0}, {"measurement": "Ability to perform normal activities constant vs baseline, % of patients", "setting": "[5]", "result": 8.55, "unit": "%"}, {"measurement": "Ability to perform normal activities constant vs baseline, patients", "setting": "[5]", "result": 10}, {"measurement": "Ability to perform normal activities improved vs baseline, % of patients", "setting": "[5]", "result": 84.62, "unit": "%"}, {"measurement": "Ability to perform normal activities improved vs baseline, patients", "setting": "[5]", "result": 99}, {"measurement": "Ability to perform normal activities worse vs baseline, % of patients", "setting": "[5]", "result": 6.84, "unit": "%"}, {"measurement": "Ability to perform normal activities worse vs baseline, patients", "setting": "[5]", "result": 8}, {"measurement": "Ability to perform normal activities, complaint scale 0-6, mean", "setting": "[5]", "result": 0.880}, {"measurement": "Ability to perform normal activities, complaint scale 0-6, median", "setting": "[5]", "result": 0.0}, {"measurement": "Reduced physical performance constant vs baseline, % of patients", "setting": "[5]", "result": 47.86, "unit": "%"}, {"measurement": "Reduced physical performance constant vs baseline, patients", "setting": "[5]", "result": 56}, {"measurement": "Reduced physical performance improved vs baseline, % of patients", "setting": "[5]", "result": 47.01, "unit": "%"}, {"measurement": "Reduced physical performance improved vs baseline, patients", "setting": "[5]", "result": 55}, {"measurement": "Reduced physical performance worse vs baseline, % of patients", "setting": "[5]", "result": 5.13, "unit": "%"}, {"measurement": "Reduced physical performance worse vs baseline, patients", "setting": "[5]", "result": 6}, {"measurement": "Ability to perform normal activities, complaint scale 0-6, mean change", "setting": "[6]", "result": "−1.741"}, {"measurement": "Ability to perform normal activities, complaint scale 0-6, median change", "setting": "[6]", "result": "−2.000"}, {"measurement": "Ability to perform normal activities, complaint scale 0-6, mean change", "setting": "[7]", "result": "−2.587"}, {"measurement": "Ability to perform normal activities, complaint scale 0-6, median change", "setting": "[7]", "result": "−3.000"}, {"measurement": "Ability to perform normal activities, complaint scale 0-6, mean change", "setting": "[8]", "result": "−2.933"}, {"measurement": "Ability to perform normal activities, complaint scale 0-6, median change", "setting": "[8]", "result": "−3.0"}, {"measurement": "Ability to perform normal activities, complaint scale 0-6, mean change", "setting": "patients with cough, n = 106", "result": "−2.255"}, {"measurement": "Ability to perform normal activities, complaint scale 0-6, median change", "setting": "patients with cough, n = 106", "result": "−2.0"}, {"measurement": "Ability to perform normal activities, complaint scale 0-6, mean change", "setting": "patients with fever, n = 21", "result": "−3.238"}, {"measurement": "Ability to perform normal activities, complaint scale 0-6, median change", "setting": "patients with fever, n = 21", "result": "−4.0"}, {"measurement": "Ability to perform normal activities, complaint scale 0-6, mean change", "setting": "[9]", "result": "−2.419"}, {"measurement": "Ability to perform normal activities, complaint scale 0-6, median change", "setting": "[9]", "result": "−3.0"}, {"measurement": "Ability to perform normal activities constant vs baseline, % of patients", "setting": "[10]", "result": 11.11, "unit": "%"}, {"measurement": "Ability to perform normal activities constant vs baseline, patients", "setting": "[10]", "result": 3}, {"measurement": "Ability to perform normal activities improved vs baseline, % of patients", "setting": "[10]", "result": 74.07, "unit": "%"}, {"measurement": "Ability to perform normal activities improved vs baseline, patients", "setting": "[10]", "result": 20}, {"measurement": "Ability to perform normal activities worse vs baseline, % of patients", "setting": "[10]", "result": 14.81, "unit": "%"}, {"measurement": "Ability to perform normal activities worse vs baseline, patients", "setting": "[10]", "result": 4}, {"measurement": "Ability to perform normal activities, complaint scale 0-6, mean", "setting": "[10]", "result": 1.296}, {"measurement": "Ability to perform normal activities, complaint scale 0-6, median", "setting": "[10]", "result": 1.000}, {"measurement": "Cough complaint scale 0-6, mean", "setting": "[10]", "result": 0.370}, {"measurement": "Cough complaint scale 0-6, median", "setting": "[10]", "result": 0.000}, {"measurement": "Ability to perform normal activities constant vs baseline, % of patients", "setting": "[11]", "result": 12.00, "unit": "%"}, {"measurement": "Ability to perform normal activities constant vs baseline, patients", "setting": "[11]", "result": 9}, {"measurement": "Ability to perform normal activities improved vs baseline, % of patients", "setting": "[11]", "result": 82.67, "unit": "%"}, {"measurement": "Ability to perform normal activities improved vs baseline, patients", "setting": "[11]", "result": 62}, {"measurement": "Ability to perform normal activities worse vs baseline, % of patients", "setting": "[11]", "result": 5.33, "unit": "%"}, {"measurement": "Ability to perform normal activities worse vs baseline, patients", "setting": "[11]", "result": 4}, {"measurement": "Ability to perform normal activities, complaint scale 0-6, mean", "setting": "[11]", "result": 0.787}, {"measurement": "Ability to perform normal activities, complaint scale 0-6, median", "setting": "[11]", "result": 0.000}, {"measurement": "Presence of cough constant vs baseline, % of patients", "setting": "[11]", "result": 54.67, "unit": "%"}, {"measurement": "Presence of cough constant vs baseline, patients", "setting": "[11]", "result": 41}, {"measurement": "Presence of cough improved vs baseline, % of patients", "setting": "[11]", "result": 42.67, "unit": "%"}, {"measurement": "Presence of cough improved vs baseline, patients", "setting": "[11]", "result": 32}, {"measurement": "Presence of cough worse vs baseline, % of patients", "setting": "[11]", "result": 2.67, "unit": "%"}, {"measurement": "Presence of cough worse vs baseline, patients", "setting": "[11]", "result": 2}, {"measurement": "Reduced physical performance constant vs baseline, % of patients", "setting": "[11]", "result": 38.67, "unit": "%"}, {"measurement": "Reduced physical performance constant vs baseline, patients", "setting": "[11]", "result": 29}, {"measurement": "Reduced physical performance improved vs baseline, % of patients", "setting": "[11]", "result": 56.00, "unit": "%"}, {"measurement": "Reduced physical performance improved vs baseline, patients", "setting": "[11]", "result": 42}, {"measurement": "Reduced physical performance worse vs baseline, % of patients", "setting": "[11]", "result": 5.33, "unit": "%"}, {"measurement": "Reduced physical performance worse vs baseline, patients", "setting": "[11]", "result": 4}, {"measurement": "Ability to perform normal activities, complaint scale 0-6, mean", "setting": "[12]", "result": 1.067}, {"measurement": "Ability to perform normal activities, complaint scale 0-6, median", "setting": "[12]", "result": 0.0}, {"measurement": "Ability to perform normal activities, complaint scale 0-6, mean", "setting": "[13]", "result": 0.660}, {"measurement": "Ability to perform normal activities, complaint scale 0-6, median", "setting": "[13]", "result": 0.0}, {"measurement": "Ability to perform normal activities, complaint scale 0-6, mean", "setting": "[14]", "result": 0.762}, {"measurement": "Ability to perform normal activities, complaint scale 0-6, median", "setting": "[14]", "result": 0.0}, {"measurement": "Ability to perform normal activities constant vs baseline, % of patients", "setting": "[15]", "result": 11.97, "unit": "%"}, {"measurement": "Ability to perform normal activities constant vs baseline, patients", "setting": "[15]", "result": 14}, {"measurement": "Ability to perform normal activities improved vs baseline, % of patients", "setting": "[15]", "result": 82.05, "unit": "%"}, {"measurement": "Ability to perform normal activities improved vs baseline, patients", "setting": "[15]", "result": 96}, {"measurement": "Ability to perform normal activities worse vs baseline, % of patients", "setting": "[15]", "result": 5.98, "unit": "%"}, {"measurement": "Ability to perform normal activities worse vs baseline, patients", "setting": "[15]", "result": 7}, {"measurement": "Ability to perform normal activities, complaint scale 0-6, mean", "setting": "[15]", "result": 0.769}, {"measurement": "Ability to perform normal activities, complaint scale 0-6, median", "setting": "[15]", "result": 0.0}, {"measurement": "Fatigue constant vs baseline, % of patients", "setting": "[15]", "result": 38.46, "unit": "%"}, {"measurement": "Fatigue constant vs baseline, patients", "setting": "[15]", "result": 45}, {"measurement": "Fatigue improved vs baseline, % of patients", "setting": "[15]", "result": 59.83, "unit": "%"}, {"measurement": "Fatigue improved vs baseline, patients", "setting": "[15]", "result": 70}, {"measurement": "Fatigue worse vs baseline, % of patients", "setting": "[15]", "result": 1.71, "unit": "%"}, {"measurement": "Fatigue worse vs baseline, patients", "setting": "[15]", "result": 2}, {"measurement": "Reduced physical performance constant vs baseline, % of patients", "setting": "[15]", "result": 40.17, "unit": "%"}, {"measurement": "Reduced physical performance constant vs baseline, patients", "setting": "[15]", "result": 47}, {"measurement": "Reduced physical performance improved vs baseline, % of patients", "setting": "[15]", "result": 54.70, "unit": "%"}, {"measurement": "Reduced physical performance improved vs baseline, patients", "setting": "[15]", "result": 64}, {"measurement": "Reduced physical performance worse vs baseline, % of patients", "setting": "[15]", "result": 5.13, "unit": "%"}, {"measurement": "Reduced physical performance worse vs baseline, patients", "setting": "[15]", "result": 6}]}]}
